Values joined by “and” are separate entries in the source; they are usually repeats but may differ in a detail not shown here. Equal values may be shown once.
What was measured:
[1] = tested on: Picnic Beetle; experiment: Field trial (first summer), stomach; assay type: in vivo; settings: 250 ppm
Method: Leaves from the infested plant are treated with different concentrations of the test compounds, either by spraying with a DeVilbiss Special Atomizer (5004) at 10 psi or by dipping the leaves in solutions containing the compound. The leaves are then allowed to air dry.
After the leaves have dryed, they are placed in plastic petri dishes (100 × 25 mm), then the insects are counted out into each dish, five or ten insects per dish depending on the number of insects available. There are one or two replicates and usually two or three rates with each compound. Mortality results are taken at 24, 48 and 72 hours. The rating scale is 0 to 9.
(§1) During the previous summer similar field trials were conducted employing the same tests as heretofore but with some additional species of insects not included in the later tests. The results listed below are for tests in which an insect mortality was established by a given application route and at a given concentration in a particular test. The same 0 - 9 scoring system is used as is the designation of compounds by alphabetical symbols.

[2] = tested on: Asparagus Beetles Adults; experiment: Field trial, contact poison test; assay type: in vivo
Procedure, shortened: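 Each infested plant sits in a water-filled bottle to prevent wilting, and the test compound is then atomized onto it at 10 psi at various concentrations. Falling dead insects are collected, and mortality is rated 0 (0-10%) to 9 (91-100%) at up to 72 h.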

[3] = tested on: Striped Cucumber Beetle Adults; experiment: Field trial, stomach poison test; assay type: in vivo; set-up: key: mortality rating on a 0 to 9 scale
Procedure, shortened: (§2)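 Spray (10 psi) or dip leaves from infested plants in test solution; air-dry; put in Petri dish; add 5 or 10 insects; score mortality 0–9 at 24/48/72 h. 1–2 reps, usually 2–3 rates.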

[4] = tested on: Southern Corn Rootworm Adults; experiment: Field trial, stomach poison test; assay type: in vivo; set-up: key: mortality rating on a 0 to 9 scale
Procedure, shortened: as §2

[5] = tested on: Yellow Mealworm Larvae; experiment: Field trial, topical application; assay type: in vivo; set-up: key: 0 = 0-10% mortality, 9 = 91-100% mortality (0-9 scale)
Procedure, shortened: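 1 μL benzimidazole solution of set microgram content applied topically to larvae or adults. Mortality read at 24, 48 and 72 h where applicable, rated 0-9 (0 = 0-10%, 9 = 91-100%); values are average mortality per concentration.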

[6] = tested on: Milkweed Beetle; experiment: Field trial (first summer), contact; assay type: in vivo; settings: 125 ppm
Text: (§3) Infested plants are placed in 6 oz. prescription bottles filled with water to keep them from wilting. Cellucotton is wrapped around the plant stem and squeezed into the bottle neck to prevent the insects from drowning.
(§4) A DeVilbiss Special Atomizer (5004) is used at 10 psi to spray the test plant with different concentrations of compounds. The atomizer is held at arm's length to prevent blowing the insects off the host plant. After treating, the bottles are placed on a table covered with brown wrapping paper to catch the dead insects as they drop from the plant. The plants are spaced so the leaves or plants are not touching one another.
(§5) The results are read at 24, 48, and 72 hours when applicable. The rating scale is 0 to 9 where 0 = 0-10 percent and 9 = 91-100 percent mortality.
as §1

[7] = tested on: Picnic Beetle; experiment: Field trial (first summer), contact; assay type: in vivo; settings: 250 ppm
Text: as §3, §4, §5, §1

[8] = tested on: Alfalfa Weevil Larvae; experiment: Field trial, topical application; assay type: in vivo
Method: as §5
In a variation of the above test, 1 microliter of a test solution containing a predetermined number of micrograms of benzimidazole was applied directly to larvae or adult insects.
Using the above methods, field trials were carried out against species of 5 orders of insects. The results, which are summarized in the following tables, give the average mortality for the particular insect with a given benzimidazole for each concentration employed. […] These tables contain all results obtained during the summer trials.

[9] = tested on: Asparagus Beetles Adults; experiment: Field trial, stomach poison test; assay type: in vivo
Procedure, shortened: as §2

[10] = tested on: Aphids - Tulip Tree; experiment: Field trial, stomach poison test; assay type: in vivo
Procedure, shortened: as §2

[11] = tested on: Alfalfa Weevil Larvae; experiment: Field trial, stomach poison test; assay type: in vivo
Procedure, shortened: as §2

[12] = tested on: Meadow Spittlebug; experiment: Field trial, stomach poison test; assay type: in vivo
Procedure, shortened: as §2

[13] = tested on: Aphids - Sour Gum; experiment: Field trial, stomach poison test; assay type: in vivo
Procedure, shortened: as §2

[14] = tested on: Potato Flea Beetle Adults; experiment: Field trial, stomach poison test; assay type: in vivo
Procedure, shortened: as §2

[15] = tested on: Aphids - Apple; experiment: Field trial, stomach poison test; assay type: in vivo
Procedure, shortened: as §2

[16] = tested on: Boll Weevil; experiment: Boll Weevil Test; assay type: in vivo, Anthonomus grandis (Coleoptera); settings: 48 h
Text: The procedure is identical to that employed for the Mexican bean beetle and the Southern armyworm, except that 10 adult boll weevils are placed on cotton leaves that have been dipped into formulations of the test compounds. The same rating scale is used.

[17] = tested on: Mexican Bean Beetle; experiment: Mexican Bean Beetle Test; assay type: in vivo, Epilachna varivestis (Coleoptera); settings: 48 h
Method: Cuttings of four six-day old Bountiful snap bean plants containing two leaves with approximately 5 square inches of leaf surface, are placed in water. The leaves are sprayed to wetting with about 5-10 ml. of a formulation containing a pre-determined level of the test compound. Half of the formulation is sprayed on the top surface and half on the bottom surface of the leaf using a DeVilbiss atomizer at 10 psi held at a distance of about 18 inches from the leaf. After the leaves have dried, they are cut from the stem and placed separately in petri dishes. Ten third instar, nonmolting Mexican bean beetle larvae grown on Bountiful snap beans are placed on each leaf. Controls consist of two leaves sprayed with 5 ml. of a 500 ppm malathion formulation (reference standard), two leaves sprayed with the formulation without the active ingredient and two leaves are held as untreated controls. After 48 hours, a mortality count is made and the amount of feeding noted. Moribund larvae are counted as dead.

[18] = tested on: House Fly; experiment: Housefly (Stomach) Test; assay type: in vivo, Musca domestica (Diptera); settings: 24 h
Method: Ten chilled house flies are taken from the rearing cage and placed in a covered petri dish. Sugar cubes treated with 0.2 ml. of a formulation containing a specified level of the insecticide are placed in the petri dish one hour after the flies have been removed from the chill room. Controls consist of sugar cubes treated with 0.2 ml. of deionized water and cubes treated with 0.2 ml. of a formulation containing 500 ppm of malathion. Mortality counts are made 24 hours later. The same rating scale is used as before.

O=[N+]([O-])c1cc(C(F)(F)F)cc2nc(C(F)(F)F)[nH]c12 [A, 2,6-bis(trifluoromethyl)-4-nitrobenzimidazole]
insect mortality rating [1]: 9 (91-100 percent mortality) | average mortality rating ([2]; 10 ppm): 7 | average mortality rating ([2]; 25 ppm): 7 | average mortality rating ([2]; 50 ppm): 8 | average mortality rating ([3]; 10 ppm): 1 | average mortality rating ([3]; 25 ppm): 3 | average mortality rating ([3]; 50 ppm): 6 | average mortality rating ([3]; 100 ppm): 5 | average mortality rating ([4]; 25 ppm): 4 | average mortality rating ([4]; 50 ppm): 6 | average mortality rating ([4]; 100 ppm): 7 | average mortality rating ([5]; 0.03 μg/μl): 3 | average mortality rating ([5]; 0.07 μg/μl): 5 | average mortality rating ([5]; 0.15 μg/μl): 5 | insect mortality rating [6]: 9 (91-100 percent mortality) | insect mortality rating [7]: 9 (91-100 percent mortality) | average mortality rating ([8]; 0.03 μg/μl): 2 | average mortality rating ([8]; 0.07 μg/μl): 2 | average mortality rating ([8]; 0.1 μg/μl): 1 | average mortality rating ([9]; 5 ppm): 0 (0-10 percent) | average mortality rating ([9]; 10 ppm): 3 | average mortality rating ([9]; 25 ppm): 9 (91-100 percent mortality) | average mortality rating ([10]; 25 ppm): 8 | average mortality rating ([10]; 50 ppm): 5 | average mortality rating ([10]; 100 ppm): 8 | average mortality rating ([11]; 125 ppm): 7 | average mortality rating ([11]; 250 ppm): 7 | average mortality rating ([11]; 500 ppm): 7 | average mortality rating ([12]; 10 ppm): 2 | average mortality rating ([12]; 25 ppm): 0 (0-10 percent) | average mortality rating ([12]; 50 ppm): 1 | average mortality rating ([13]; 25 ppm): 7 | average mortality rating ([13]; 50 ppm): 9 (91-100 percent mortality) | average mortality rating ([13]; 100 ppm): 9 (91-100 percent mortality) | average mortality rating ([14]; 10 ppm): 9 (91-100 percent mortality) | average mortality rating ([14]; 25 ppm): 6 | average mortality rating ([14]; 50 ppm): 9 (91-100 percent mortality) | average mortality rating ([14]; 100 ppm): 9 (91-100 percent mortality) | average mortality rating ([15]; 25 ppm): 1 | average mortality rating ([15]; 50 ppm): 4 | average mortality rating ([15]; 100 ppm): 4 | mortality rating ([16]; 5 ppm): 7.5 | mortality rating ([16]; 10 ppm): 6.7 | mortality rating ([16]; 25 ppm): 8.8 | mortality rating ([16]; 50 ppm): 8.5

CCCCCCOC(=O)n1c(C(F)(F)F)nc2c([N+](=O)[O-])cc(C(F)(F)F)cc21 [E, n-hexyl 2,6-bis(trifluoromethyl)-4-nitro-1-benzimidazolecarboxylate]
insect mortality rating [1]: 9 (91-100 percent mortality) | average mortality rating ([2]; 10 ppm): 7 | average mortality rating ([2]; 25 ppm): 8 | average mortality rating ([2]; 50 ppm): 9 (91-100 percent mortality) | mortality rating ([17]; 5 ppm): 2.5 | mortality rating ([17]; 10 ppm): 7.5 | average mortality rating ([3]; 10 ppm): 3 | average mortality rating ([3]; 25 ppm): 1 | average mortality rating ([3]; 50 ppm): 5 | average mortality rating ([3]; 100 ppm): 5 | average mortality rating ([4]; 25 ppm): 5 | average mortality rating ([4]; 50 ppm): 5 | average mortality rating ([4]; 100 ppm): 5 | average mortality rating ([5]; 0.03 μg/μl): 2 | average mortality rating ([5]; 0.07 μg/μl): 3 | average mortality rating ([5]; 0.15 μg/μl): 4 | insect mortality rating [6]: 9 (91-100 percent mortality) | insect mortality rating [7]: 9 (91-100 percent mortality) | average mortality rating ([8]; 0.03 μg/μl): 2 | average mortality rating ([8]; 0.07 μg/μl): 2 | average mortality rating ([8]; 0.1 μg/μl): 4 | average mortality rating ([9]; 5 ppm): 3 | average mortality rating ([9]; 10 ppm): 5 | average mortality rating ([9]; 25 ppm): 9 (91-100 percent mortality) | average mortality rating ([10]; 25 ppm): 6 | average mortality rating ([10]; 50 ppm): 6 | average mortality rating ([10]; 100 ppm): 8 | average mortality rating ([11]; 125 ppm): 1 | average mortality rating ([11]; 250 ppm): 4 | average mortality rating ([11]; 500 ppm): 3 | average mortality rating ([12]; 10 ppm): 1 | average mortality rating ([12]; 25 ppm): 2 | average mortality rating ([12]; 50 ppm): 3 | average mortality rating ([12]; 100 ppm): 1 | average mortality rating ([13]; 25 ppm): 1 | average mortality rating ([13]; 50 ppm): 3 | average mortality rating ([13]; 100 ppm): 5 | average mortality rating ([14]; 10 ppm): 9 (91-100 percent mortality) | average mortality rating ([14]; 25 ppm): 9 (91-100 percent mortality) | average mortality rating ([14]; 50 ppm): 7 | average mortality rating ([14]; 100 ppm): 8 | average mortality rating ([15]; 25 ppm): 5 | average mortality rating ([15]; 50 ppm): 5 | average mortality rating ([15]; 100 ppm): 7 | mortality rating ([16]; 25 ppm): 6.5

mixture of methyl 2,6-bis(trifluoromethyl)-4-nitro-1-benzimidazolecarboxylate and methyl 2,5-bis(trifluoromethyl)-7-nitro-1-benzimidazolecarboxylate
insect mortality rating [1]: 9 (91-100 percent mortality) | average mortality rating ([2]; 10 ppm): 3 | average mortality rating ([2]; 25 ppm): 8 | average mortality rating ([2]; 50 ppm): 9 (91-100 percent mortality) | mortality rating ([17]; 5 ppm): 0 (0-10) | mortality rating ([17]; 10 ppm): 9 (91-100) | mortality rating ([17]; 25 ppm): 9 (91-100) | mortality rating ([17]; 50 ppm): 9 (91-100) | mortality rating ([17]; 100 ppm): 9 (91-100) | mortality rating ([17]; 250 ppm): 9 (91-100) | mortality rating ([17]; 500 ppm): 9 (91-100) | mortality rating ([17]; 1000 ppm): 9 (91-100) | average mortality rating ([3]; 10 ppm): 2 | average mortality rating ([3]; 25 ppm): 0 (0-10 percent) | average mortality rating ([3]; 50 ppm): 5 | average mortality rating ([3]; 100 ppm): 9 (91-100 percent mortality) | average mortality rating ([4]; 25 ppm): 3 and 4 | average mortality rating ([4]; 50 ppm): 4 | average mortality rating ([4]; 100 ppm): 6 | average mortality rating ([5]; 0.03 μg/μl): 2 | average mortality rating ([5]; 0.07 μg/μl): 3 | average mortality rating ([5]; 0.15 μg/μl): 6 | insect mortality rating [6]: 9 (91-100 percent mortality) | insect mortality rating [7]: 9 (91-100 percent mortality) | mortality rating ([18]; 250 ppm): 2 (21-30) | mortality rating ([18]; 500 ppm): 5.5 | mortality rating ([18]; 1000 ppm): 8.5 | average mortality rating ([8]; 0.03 μg/μl): 2 | average mortality rating ([8]; 0.07 μg/μl): 1 | average mortality rating ([8]; 0.1 μg/μl): 4 | average mortality rating ([9]; 5 ppm): 5 | average mortality rating ([9]; 10 ppm): 5 | average mortality rating ([9]; 25 ppm): 9 (91-100 percent mortality) | average mortality rating ([11]; 125 ppm): 7 | average mortality rating ([11]; 250 ppm): 6 | average mortality rating ([11]; 500 ppm): 3 | average mortality rating ([12]; 100 ppm): 5 | mortality rating ([16]; 5 ppm): 0 (0-10) | mortality rating ([16]; 10 ppm): 5.5 | mortality rating ([16]; 25 ppm): 8.5 | mortality rating ([16]; 50 ppm): 9 (91-100) | mortality rating ([16]; 100 ppm): 9 (91-100) | mortality rating ([16]; 250 ppm): 9 (91-100) | mortality rating ([16]; 500 ppm): 9 (91-100) | mortality rating ([16]; 1000 ppm): 9 (91-100)
